Reference: patent US20070128217A1 (priority 2003, published 2007)

Key:
[1] = test system: antibodies in sera from SARS patients (sera 1a, 1b, 2, 6, 37, 62, London, SARS-yellow, SARS-green); assay type: binding, human; set-up: Binding of serum 6 to linear peptides of protein X1 of SARS-CoV Urbani / Binding of serum 37 to linear peptides of protein X1 of SARS-CoV Urbani / Binding of serum 6 to looped/cyclic peptide (PEPSCAN-ELISA) / Binding of serum 37 to looped/cyclic peptide (PEPSCAN-ELISA) / Binding of serum 37 to looped/cyclic peptides of protein X1 of SARS-CoV Urbani / Binding of serum 6 to linear peptides of protein X2 / Binding of serum 37 to linear peptides of protein X2 / Binding of serum 37 to looped/cyclic peptides of protein X2 of SARS-CoV Urbani / Binding of serum 6 to linear peptides of protein M of SARS-CoV Urbani / Binding of serum 37 to linear peptides of protein M of SARS-CoV Urbani / Binding of serum 6 to looped/cyclic peptides of protein M of SARS-CoV Urbani / Binding of serum 37 to looped/cyclic peptides of protein M of SARS-CoV Urbani / Binding of serum 6 to linear peptides of protein X3 of SARS-CoV Urbani / Binding of serum 37 to linear peptides of protein X3 of SARS-CoV Urbani / Binding of serum 37 to looped/cyclic peptides of protein X3 of SARS-CoV Urbani / Binding of serum 6 to linear peptides of protein X4 of SARS-CoV Urbani / Binding of serum 37 to linear peptides of protein X4 of SARS-CoV Urbani / Binding of serum 37 to looped/cyclic peptides of protein X4 of SARS-CoV Urbani / Binding of serum 6 to linear peptides of protein X5 of SARS-CoV Urbani / Binding of serum 37 to linear peptides of protein X5 of SARS-CoV Urbani / Binding of serum 37 to looped/cyclic peptides of protein X5 of SARS-CoV Urbani / Binding of serum 6 to linear peptides of protein N of SARS-CoV Urbani / Binding of serum 37 to linear peptides of protein N of SARS-CoV Urbani / Binding of serum 6 to linear peptide (PEPSCAN-ELISA) / Binding of serum 1a to looped/cyclic peptides of protein N of SARS-CoV Urbani / Binding of serum 1b to looped/cyclic peptides of protein N of SARS-CoV Urbani / Binding of serum 2 to looped/cyclic peptides of protein N of SARS-CoV Urbani / Binding of serum 6 to looped/cyclic peptides of protein N of SARS-CoV Urbani / Binding of serum 37 to looped/cyclic peptides of protein N of SARS-CoV Urbani / Binding of serum 62 to looped/cyclic peptides of protein N of SARS-CoV Urbani / Binding of serum London to looped/cyclic peptides of protein N of SARS-CoV Urbani / Binding of serum SARS-green to looped/cyclic peptides of protein N of SARS-CoV Urbani: unit not given here
[2] = test system: control sera (pooled serum of ten healthy LUMC hospital workers; commercial negative donor pooled serum from the Dutch bloodbank); assay type: binding, human; set-up: Binding of Control serum LUMC to linear peptides / Binding of Control serum Blood-bank to linear peptides / Binding of Control serum LUMC to looped peptides / Binding of Control Serum Blood-Bank to Looped peptides / Binding of Control serum LUMC to linear peptides of the protein M of SARS-CoV Urbani / Binding of Control serum Blood-bank to linear peptides of the protein M of SARS-CoV Urbani / Binding of Control serum LUMC to looped peptides of the protein M of SARS-CoV Urbani / Binding of Control Serum Blood-Bank to Looped peptides of the protein M of SARS-CoV Urbani: unit not given here
[3] = test system: rabbit serum obtained by immunizing a rabbit with the SARS-CoV strain Frankfurt 1; assay type: binding; set-up: Binding of a rabbit serum to linear peptides / Binding of a rabbit serum to looped peptides / Rabbit serum linear peptides / Rabbit serum looped peptides / Binding of a rabbit serum to linear peptides of protein N of SARS-CoV Urbani (Rabbit serum linear peptides) / Binding of a rabbit serum to looped/cyclic peptides of protein N of SARS-CoV Urbani (Rabbit serum looped peptides): unit not given here

With TRHTYQLRARSVSPK the “Binding of serum 1a to linear peptides of protein X4 of SARS-CoV Urbani” value [1] was 0.8, the “Binding of serum 1a to looped/cyclic peptides of protein X4 of SARS-CoV Urbani” value [1] was 0.8 and the “Binding of serum 1b to linear peptides of protein X4 of SARS-CoV Urbani” value [1] was 0.7. The “Binding of serum 1b to looped/cyclic peptides of protein X4 of SARS-CoV Urbani” value [1] was 0.4, the “Binding of serum 2 to linear peptides of protein X4 of SARS-CoV Urbani” value [1] was 0.7 and the “Binding of serum 2 to looped/cyclic peptides of protein X4 of SARS-CoV Urbani” value [1] was 0.8. For the same sequence, the “Binding of serum 6 to linear peptides of protein X4 of SARS-CoV Urbani” value [1] was 1.3, the “Binding of serum 6 to looped/cyclic peptides of protein X4 of SARS-CoV Urbani” value [1] was 0.9 and the “Binding of serum 37 to linear peptides of protein X4 of SARS-CoV Urbani” value [1] was 1.0. The “Binding of serum 37 to looped/cyclic peptides of protein X4 of SARS-CoV Urbani” value [1] was 0.7, the “Binding of serum 62 to linear peptides of protein X4 of SARS-CoV Urbani” value [1] was 0.9 and the “Binding of serum 62 to looped/cyclic peptides of protein X4 of SARS-CoV Urbani” value [1] was 0.6. For the same sequence, the “Binding of serum London to linear peptides of protein X4 of SARS-CoV Urbani” value [1] was 0.8, the “Binding of serum London to looped/cyclic peptides of protein X4 of SARS-CoV Urbani” value [1] was 0.4 and the “Binding of serum SARS-green to linear peptides of protein X4 of SARS-CoV Urbani” value [1] was 0.6. For the same sequence, the “Binding of serum SARS-green to looped/cyclic peptides of protein X4 of SARS-CoV Urbani” value [1] was 0.7, the “Binding of serum SARS-yellow to linear peptides of protein X4 of SARS-CoV Urbani” value [1] was 0.9 and the “Binding of serum SARS-yellow to looped/cyclic peptides of protein X4 of SARS-CoV Urbani” value [1] was 0.7. For the same sequence, the “Binding of Control Serum Blood-Bank to Looped peptides” value [2] was 0.7, the “Binding of Control serum Blood-bank to linear peptides” value [2] was 0.9 and the “Binding of Control serum LUMC to linear peptides” value [2] was 0.9. For the same sequence, the “Binding of Control serum LUMC to looped peptides” value [2] was 0.7 and the “Recognition of the peptide by the rabbit serum” value [3] was “recognized”.

With TRSMWSFNPETNILL the “Binding of serum 1a to linear peptides of protein M of SARS-CoV Urbani” value [1] was 0.8, the “Binding of serum 1a to looped/cyclic peptides of protein M of SARS-CoV Urbani” value [1] was 1.0 and the “Binding of serum 1b to linear peptides of protein M of SARS-CoV Urbani” value [1] was 0.7. For the same sequence, the “Binding of serum 1b to looped/cyclic peptides of protein M of SARS-CoV Urbani” value [1] was 0.4, the “Binding of serum 2 to linear peptides of protein M of SARS-CoV Urbani” value [1] was 0.5 and the “Binding of serum 2 to looped/cyclic peptides of protein M of SARS-CoV Urbani” value [1] was 0.8. For the same sequence, the “Binding of serum 6 to linear peptides of protein M of SARS-CoV Urbani” value [1] was 0.5, the “Binding of serum 6 to looped/cyclic peptides of protein M of SARS-CoV Urbani” value [1] was 0.9 and the “Binding of serum 37 to linear peptides of protein M of SARS-CoV Urbani” value [1] was 0.5. The “Binding of serum 37 to looped/cyclic peptides of protein M of SARS-CoV Urbani” value [1] was 1.1, the “Binding of serum 62 to linear peptides of protein M of SARS-CoV Urbani” value [1] was 0.4 and the “Binding of serum 62 to looped/cyclic peptides of protein M of SARS-CoV Urbani” value [1] was 1.1. For the same sequence, the “Binding of serum London to linear peptides of protein M of SARS-CoV Urbani” value [1] was 0.3, the “Binding of serum London to looped/cyclic peptides of protein M of SARS-CoV Urbani” value [1] was 0.3 and the “Binding of serum SARS-green to linear peptides of protein M of SARS-CoV Urbani” value [1] was 0.5. For the same sequence, the “Binding of serum SARS-green to looped/cyclic peptides of protein M of SARS-CoV Urbani” value [1] was 0.5, the “Binding of serum SARS-yellow to linear peptides of protein M of SARS-CoV Urbani” value [1] was 0.3 and the “Binding of serum SARS-yellow to looped/cyclic peptides of protein M of SARS-CoV Urbani” value [1] was 0.7. The “Binding of Control Serum Blood-Bank to Looped peptides of the protein M of SARS-CoV Urbani” value [2] was 0.9, the “Binding of Control serum Blood-bank to linear peptides of the protein M of SARS-CoV Urbani” value [2] was 0.7 and the “Binding of Control serum LUMC to linear peptides of the protein M of SARS-CoV Urbani” value [2] was 0.8. For the same sequence, the “Binding of Control serum LUMC to looped peptides of the protein M of SARS-CoV Urbani” value [2] was 0.9, the “Rabbit serum linear peptides” value [3] was 0.1 and the “Rabbit serum looped peptides” value [3] was 0.3.

With LTCTSTHFAFACADG the “Binding of serum 1a to linear peptides of protein X4 of SARS-CoV Urbani” value [1] was 0.8, the “Binding of serum 1a to looped/cyclic peptides of protein X4 of SARS-CoV Urbani” value [1] was 0.6 and the “Binding of serum 1b to linear peptides of protein X4 of SARS-CoV Urbani” value [1] was 0.8. The “Binding of serum 1b to looped/cyclic peptides of protein X4 of SARS-CoV Urbani” value [1] was 0.3, the “Binding of serum 2 to linear peptides of protein X4 of SARS-CoV Urbani” value [1] was 0.5 and the “Binding of serum 2 to looped/cyclic peptides of protein X4 of SARS-CoV Urbani” value [1] was 0.6. For the same sequence, the “Binding of serum 6 to linear peptides of protein X4 of SARS-CoV Urbani” value [1] was 0.6, the “Binding of serum 6 to looped/cyclic peptides of protein X4 of SARS-CoV Urbani” value [1] was 0.5 and the “Binding of serum 37 to linear peptides of protein X4 of SARS-CoV Urbani” value [1] was 0.8. For the same sequence, the “Binding of serum 37 to looped/cyclic peptides of protein X4 of SARS-CoV Urbani” value [1] was 0.5, the “Binding of serum 62 to linear peptides of protein X4 of SARS-CoV Urbani” value [1] was 0.8 and the “Binding of serum 62 to looped/cyclic peptides of protein X4 of SARS-CoV Urbani” value [1] was 0.6. The “Binding of serum London to linear peptides of protein X4 of SARS-CoV Urbani” value [1] was 0.8, the “Binding of serum London to looped/cyclic peptides of protein X4 of SARS-CoV Urbani” value [1] was 0.3 and the “Binding of serum SARS-green to linear peptides of protein X4 of SARS-CoV Urbani” value [1] was 0.8. The “Binding of serum SARS-green to looped/cyclic peptides of protein X4 of SARS-CoV Urbani” value [1] was 0.4, the “Binding of serum SARS-yellow to linear peptides of protein X4 of SARS-CoV Urbani” value [1] was 0.5 and the “Binding of serum SARS-yellow to looped/cyclic peptides of protein X4 of SARS-CoV Urbani” value [1] was 0.4. For the same sequence, the “Binding of Control Serum Blood-Bank to Looped peptides” value [2] was 0.7, the “Binding of Control serum Blood-bank to linear peptides” value [2] was 0.8 and the “Binding of Control serum LUMC to linear peptides” value [2] was 0.8. For the same sequence, the “Binding of Control serum LUMC to looped peptides” value [2] was 0.6, the “Rabbit serum linear peptides” value [3] was 0.5 and the “Rabbit serum looped peptides” value [3] was 0.3.
